Assay results: ChEMBL document CHEMBL1201862, “PubChem BioAssay data set” (2004)
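Exposure lasted 48 hours, with cells grown in 96-well plates and compounds tested at five concentrations. Abbreviation: GI50, concentration required for 50% inhibition of growth.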 Activity calls are given as the source filed them. Cut-off read from the data, not from the text of the source: active = GI50 up to about 1.1 µM and inactive = higher.

Assays:
Assay in all cases: NCI tumour cell line growth inhibition, 48 h
786-0 = test system: 786-0
A498 = test system: A498
HCT-116 = test system: HCT-116
HOP-92 = test system: HOP-92
LOX IMVI = test system: LOX IMVI
M14 = test system: M14
MCF7 = test system: MCF7
MDA-MB-435 = test system: MDA-MB-435
Malme-3M = test system: Malme-3M
NCI-H226 = test system: NCI-H226
NCI-H23 = test system: NCI-H23
NCI-H460 = test system: NCI-H460
OVCAR-5 = test system: OVCAR-5
OVCAR-8 = test system: OVCAR-8
RXF 393 = test system: RXF 393
SK-MEL-2 = test system: SK-MEL-2
SNB-19 = test system: SNB-19
T47D = test system: T47D
UACC-62 = test system: UACC-62
UO-31 = test system: UO-31

| SMILES | GI50 (786-0) | GI50 (A498) | GI50 (HCT-116) | GI50 (HOP-92) | GI50 (LOX IMVI) | GI50 (M14) | GI50 (MCF7) | GI50 (MDA-MB-435) | GI50 (Malme-3M) | GI50 (NCI-H226) | GI50 (NCI-H23) | GI50 (NCI-H460) | GI50 (OVCAR-5) | GI50 (OVCAR-8) | GI50 (RXF 393) | GI50 (SK-MEL-2) | GI50 (SNB-19) | GI50 (T47D) | GI50 (UACC-62) | GI50 (UO-31) |
| --- | --- | --- | --- | --- | --- | --- | --- | --- | --- | --- | --- | --- | --- | --- | --- | --- | --- | --- | --- | --- |
| COc1cc(S(=O)(=O)Nc2ccc(-c3csc(N4C(=O)C(Cl)C4c4cccc(Oc5ccccc5)c4)n3)cc2)ccc1Cl (stereo not given) | 13.7 µM (inactive) | 25.2 µM (inactive) | 35.6 µM (inactive) | 15.3 µM (inactive) | 2.24 µM (inactive) | 22.9 µM (inactive) | 37.7 µM (inactive) | 20.3 µM (inactive) | > 100 µM (inactive) | 18.8 µM (inactive) | 16 µM (inactive) | > 100 µM (inactive) | 38.5 µM (inactive) | 30.3 µM (inactive) | 3.13 µM (inactive) | 31 µM (inactive) | > 100 µM (inactive) | 24.4 µM (inactive) | 24.5 µM (inactive) | 21.2 µM (inactive) |
| CCOC(=O)Nc1ccc2c(c1)c(CCCCCCc1nc3ccccc3c3ccc(NC(=O)OCC)cc13)nc1ccccc12 | 18.4 µM (inactive) | 31.3 µM (inactive) | 54.3 µM (inactive) | 21.8 µM (inactive) | 21.6 µM (inactive) | 29.1 µM (inactive) | > 100 µM (inactive) | 59.7 µM (inactive) | > 10 µM (inactive) | 23.9 µM (inactive) | > 100 µM (inactive) | 61.9 µM (inactive) | > 100 µM (inactive) | 25.4 µM (inactive) | 47.2 µM (inactive) | 29.9 µM (inactive) | 30.1 µM (inactive) | > 100 µM (inactive) | > 100 µM (inactive) | 68.4 µM (inactive) |
| CC(C)C(C)/C=C\C(C)C1CCC2C3=CC=C4CC(O)CCC4(C)C3CCC21C (stereo not given) | > 43.2 µM (inactive) | > 85.5 µM (inactive) | 39.8 µM (inactive) | 5.75 µM (inactive) | > 42.7 µM (inactive) | > 46.8 µM (inactive) | 30.2 µM (inactive) | 41.1 µM (inactive) | > 34.7 µM (inactive) | > 38 µM (inactive) | > 76.7 µM (inactive) | > 36.1 µM (inactive) | > 100 µM (inactive) | 29.2 µM (inactive) | > 42.5 µM (inactive) | > 62.1 µM (inactive) | > 74.5 µM (inactive) | 81.5 µM (inactive) | > 44.6 µM (inactive) | > 48.3 µM (inactive) |
| O=c1[nH]c2cc([N+](=O)[O-])c(N/N=C/c3ccc(Cl)cc3Cl)c([N+](=O)[O-])c2[nH]1 | 32.1 µM (inactive) | 14.3 µM (inactive) | 25.7 µM (inactive) | 32.9 µM (inactive) | 18.5 µM (inactive) | > 100 µM (inactive) | 42.6 µM (inactive) | 5.21 µM (inactive) | 31.2 µM (inactive) | 58.3 µM (inactive) | 71.3 µM (inactive) | 83 µM (inactive) | 70 µM (inactive) | 20 µM (inactive) | 18.2 µM (inactive) | > 100 µM (inactive) | 64 µM (inactive) | > 100 µM (inactive) | > 100 µM (inactive) | 41.6 µM (inactive) |
| O=C1C(Cl)C2(CC(/C=C/c3ccccc3)=NN2c2cccc(S(=O)(=O)O)c2)N1c1nc2ccccc2s1 (stereo not given) | 17.3 µM (inactive) | 19.3 µM (inactive) | 21.1 µM (inactive) | 11.7 µM (inactive) | 2.79 µM (inactive) | 17.2 µM (inactive) | 16.7 µM (inactive) | 21.4 µM (inactive) | 17.3 µM (inactive) | 17.7 µM (inactive) | 13.2 µM (inactive) | 22.8 µM (inactive) | 18.1 µM (inactive) | 11.9 µM (inactive) | 7.83 µM (inactive) | 17.3 µM (inactive) | 25.2 µM (inactive) | 11 µM (inactive) | 14 µM (inactive) | 4.32 µM (inactive) |
| CCOC(=O)C1(O)C(=O)C2=C3C(=O)OC(C4OC(=O)c5c(c(O)c(O)c(O)c5C31)-c1c(cc(O)c(O)c1O)C(=O)OC1COC(=O)c3cc(O)c(O)c(O)c3-c3c(cc(O)c(O)c3O)C(=O)OC14)[C@@H]2O (stereo not given in full) | 19.2 µM (inactive) | > 100 µM (inactive) | 15.6 µM (inactive) | 23 µM (inactive) | 15.8 µM (inactive) | 21.8 µM (inactive) | 18.7 µM (inactive) | 13 µM (inactive) | 26.9 µM (inactive) | 16.5 µM (inactive) | 16.3 µM (inactive) | 29.3 µM (inactive) | 15.9 µM (inactive) | 19.8 µM (inactive) | 17.5 µM (inactive) | 25.7 µM (inactive) | > 100 µM (inactive) | 24.8 µM (inactive) | 20 µM (inactive) | 26.4 µM (inactive) |
| COC(=O)/C=C\C(C#N)(C#N)/N=C/c1ccc(Br)cc1 | 1.02 µM (active) | 16.2 µM (inactive) | 2.57 µM (inactive) | 1.99 µM (inactive) | 1.85 µM (inactive) | 7.26 µM (inactive) | 3.52 µM (inactive) | 7 µM (inactive) | 3.24 µM (inactive) | 6.4 µM (inactive) | 14.9 µM (inactive) | 19.6 µM (inactive) | 14.1 µM (inactive) | 5.47 µM (inactive) | 4.92 µM (inactive) | 19.3 µM (inactive) | 2.74 µM (inactive) | 3.63 µM (inactive) | 11.3 µM (inactive) | 4.36 µM (inactive) |
| S=C(N/N=C(\c1ccccc1)c1ccccn1)NC1CCCCC1 | 18 µM (inactive) | > 100 µM (inactive) | 0.566 µM (active) | > 100 µM (inactive) | 2.61 µM (inactive) | 1.16 µM (inactive) | 0.433 µM (active) | 31.6 µM (inactive) | 1.32 µM (inactive) | 3.85 µM (inactive) | 1.6 µM (inactive) | 3.36 µM (inactive) | > 88.1 µM (inactive) | 0.34 µM (active) | > 100 µM (inactive) | > 94.6 µM (inactive) | 39.7 µM (inactive) | 3.48 µM (inactive) | > 29.8 µM (inactive) | 12.9 µM (inactive) |
| O=C(N1CCN(c2ccccc2)CC1)N(C(=O)C1(c2ccc(Cl)cc2)CCCC1)S(=O)(=O)c1ccccc1 | 34.5 µM (inactive) | < 0.01 µM (active) | 22.5 µM (inactive) | 32.8 µM (inactive) | 21.3 µM (inactive) | 21.1 µM (inactive) | 26.9 µM (inactive) | 43.8 µM (inactive) | 26.4 µM (inactive) | 33.3 µM (inactive) | 26.7 µM (inactive) | 30.5 µM (inactive) | 24.8 µM (inactive) | 33 µM (inactive) | 42.2 µM (inactive) | 19.9 µM (inactive) | 28.1 µM (inactive) | 27.7 µM (inactive) | 20.6 µM (inactive) | 32.8 µM (inactive) |
| Cc1ncc([N+](=O)[O-])n1CCNC(=O)CCCn1cnc([N+](=O)[O-])n1 | > 100 µM (inactive) | > 84.3 µM (inactive) | > 100 µM (inactive) | > 100 µM (inactive) | > 100 µM (inactive) | > 100 µM (inactive) | > 100 µM (inactive) | > 100 µM (inactive) | > 100 µM (inactive) | > 100 µM (inactive) | > 100 µM (inactive) | > 100 µM (inactive) | > 100 µM (inactive) | > 95.9 µM (inactive) | > 100 µM (inactive) | > 90.8 µM (inactive) | > 100 µM (inactive) | > 100 µM (inactive) | > 100 µM (inactive) | > 100 µM (inactive) |
| Cc1ccc2[nH]c(=N/c3ccccc3C)/c(=N\c3ccccc3C)[nH]c2c1 | 30 µM (inactive) | 26.9 µM (inactive) | 17.7 µM (inactive) | 19.4 µM (inactive) | 20 µM (inactive) | 43.8 µM (inactive) | 77.3 µM (inactive) | 32.2 µM (inactive) | 22.2 µM (inactive) | 29.2 µM (inactive) | 15.7 µM (inactive) | 17.3 µM (inactive) | 21.5 µM (inactive) | 34.3 µM (inactive) | 17.3 µM (inactive) | 12.7 µM (inactive) | 46.8 µM (inactive) | 19.3 µM (inactive) | 26.3 µM (inactive) | 19.4 µM (inactive) |
| O=C1C=CC(=O)c2c1ccc1c3ccccc3n(Cc3cccc([N+](=O)[O-])c3)c21 | 22.8 µM (inactive) | 58.3 µM (inactive) | 24.5 µM (inactive) | 20.1 µM (inactive) | 33.9 µM (inactive) | 27.7 µM (inactive) | 22.3 µM (inactive) | 26.2 µM (inactive) | 19.5 µM (inactive) | 99.3 µM (inactive) | 21.7 µM (inactive) | > 95.9 µM (inactive) | > 100 µM (inactive) | 30.4 µM (inactive) | 22.5 µM (inactive) | 39.8 µM (inactive) | > 100 µM (inactive) | 26.4 µM (inactive) | > 46 µM (inactive) | 50 µM (inactive) |
| COc1ccc(-c2c(C(C)=O)c(C)n(C3OC(COC(C)=O)C(OC(C)=O)C(OC(C)=O)C3OC(C)=O)c(=S)c2C#N)cc1 (stereo not given) | 62.1 µM (inactive) | > 100 µM (inactive) | 72.1 µM (inactive) | 15 µM (inactive) | 21.9 µM (inactive) | > 100 µM (inactive) | > 100 µM (inactive) | > 100 µM (inactive) | > 100 µM (inactive) | > 100 µM (inactive) | > 100 µM (inactive) | 81.5 µM (inactive) | > 100 µM (inactive) | > 100 µM (inactive) | 80.7 µM (inactive) | 29.9 µM (inactive) | 89.9 µM (inactive) | > 100 µM (inactive) | 36.6 µM (inactive) | 2.15 µM (inactive) |
